Measurements published in patent US20130095122A1, “Peptides or Antibodies Which Bind to Melanoma Inhibitory Activity (MIA) Protein” (priority 2010, published 2013).

Biological target: T1, MIA-MIA interaction (MIA-Ru(bpy)3 / immobilized MIA-biotin) (Homo sapiens, UniProt Q16674)
T1 sequence (Q16674 25-131): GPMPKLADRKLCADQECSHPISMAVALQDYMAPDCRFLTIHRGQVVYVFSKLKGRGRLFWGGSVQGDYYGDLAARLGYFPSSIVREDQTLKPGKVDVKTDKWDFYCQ
Assay: heterogeneous transition-metal based fluorescence polarization (HTFP) assay of MIA-MIA interaction
Format: binding
Conditions: MIA-Ru(bpy)3 55 fM in wells coated with MIA-biotin
Method: This becomes particularly evident in a heterogeneous transition metal-based fluorescence polarization assay (HTFP assay), wherein the ratio P/P0 is measured. P is the fluorescence polarization signal of a MIA protein labeled with a transition metal complex in the presence of substrate bound MIA-protein and of the peptide or antibody to be tested. P0 is the fluorescence polarization signal of free MIA-protein labeled with said luminescent transition metal complex in the absence of substrate bound MIA-protein and in the absence of said peptide or antibody. In the absence of the peptide or antibody, usually, the labeled MIA-protein would interact with the substrate bound MIA-protein, which, in turn, would contribute to a reduction in rotational mobility of the labeled MIA-protein, and therefore, the fluorescence polarization signal would increase upon such interaction. If, additionally, a peptide or antibody is present that interferes with such interaction, no or little dimerization/aggregation occurs and no or little increase in fluorescence polarization signal would be detected. […]
All measurements were performed at RT on a Polarstar Optima microplate reader (BMG Labtech, Offenburg, Germany). […]

Ac-FHWRYPLPLPGQ-NH2 [AR71, FHWRYPLPLPGQ]
interference with MIA-MIA interaction (decrease in fluorescence polarization signal, P/P0): particularly potent in dissociating MIA dimers
